Data reported in patent US12144864B2, “Tubulysins and protein-tubulysin conjugates” (Regeneron Pharmaceuticals, Inc., priority 2018, dated 2024).
Like-named read-outs stand apart in the source and are kept apart here.

B1: Anti-STEAP2 N297Q Ab-LP3 (antibody, V domains shown)
VH: QVQLVESGGGVVQPGRSLRLSCVASGFTISSYGMNWVRQAPGKGLEWVAVISYDGGNKYSVDSVKGRFTISRDNSKNTLYLQMNSLRAEDSAVYYCARGRYFDLWGRGTLVTVSS
VL: DIQMTQSPSTLSASVGDRVTITCRASQSISSWLAWYQQKPGRAPNLLISKASSLKSGVPSRFSGSGSGTEFTLTVSSLQPDDFATYYCQQYYSYSYTFGQGTKLEIK
modifications: N297Q (EU numbering) in the heavy chain constant region; linker-payload LP3 (payload IVd) clicked to azido-PEG3-amine that transglutaminase put on heavy chain glutamines; DAR 3.8 (Table 7)
B2: Anti-STEAP2 N297Q Ab-LP4 (antibody, V domains shown)
VH: B1 VH
VL: B1 VL
modifications: N297Q (EU numbering) in the heavy chain constant region; linker-payload LP4 (payload Ve) clicked to azido-PEG3-amine that transglutaminase put on heavy chain glutamines; DAR 3.8 (Table 7)

Tests used:
[1] = tested on: HCT15 cells; assay: cells; type: cell-based, human; conditions: HCT15 cells; for HCT-15 + verapamil % Kill / HCT-15 % Kill: maximum % cell killing
Summary of the method: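 HCT15 colorectal carcinoma cells, 1000 per well in RPMI/10% FBS, with or without 5 ug/mL verapamil, exposed to 1:3 serially diluted payloads for 5 days at 37 °C. Viability measured by CellTiter-Glo ATP luminescence; IC50 from four-parameter logistic fit of a 10-point curve, % kill at top concentration.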

[2] = tested on: HEK293 cells; assay: Cell-based killing assay of payloads (CellTiter-Glo), HEK293 cells; set-up: species or system human; conditions: 5-day incubation; for IC50: Homo sapiens, HEK293, 120 h; for HEK293 % Kill: at maximum concentration tested
Summary of the method: (§1)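 Cells plated at 4000/well in line-specific complete medium, grown overnight, then exposed to 1:3 serial dilutions of payload (100 nM to […]) for 5 days. ATP-based CellTiter-Glo luminescence read; IC50 from four-parameter logistic 10-point fit, and % kill at top concentration as 100 − % viable.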

[3] = tested on: HCT15/PRLR cells; assay: Cytotoxicity of anti-PRLR tubulysin ADCs and payloads in HCT15/PRLR cells with or without Verapamil; type: cell-based, human; conditions: for IC50: Homo sapiens, HCT-15; for % kill on HCT15/PRLR w/ Verapamil / % kill on HCT15/PRLR w/o Verapamil: at maximum concentration tested
Procedure: (§2) To test the ability of the disclosed tubulysin payloads to kill human cell lines, an in vitro cytotoxicity assay was performed. In vitro cytotoxicity of the disclosed payloads, as well as reference compounds, were evaluated using the CellTiter-Glo Assay Kit (Promega, Cat #G7573), in which the quantity of ATP present is used to determine the number of viable cells in culture. For the assay, C4-2, HEK293, or T47D cells were seeded at 4000 cells/well on Nunclon white 96-well plates in complete growth medium (DME high glucose:Ham's F12 at 4:1, 10% FBS, 100 units/ml Penicillin, 100 ug/ml streptomycin, 53 ug/ml glutatmine, 10 ug/ml insulin, 220 ng/ml biotin, 12.5 pg/ml T3, 12.5 ug/ml Adenine, 4 ug/ml transferrin for C42 cells; DME high glucose, 10% FBS, 100 units/ml Penicillin, 100 ug/ml streptomycin, 53 ug/ml glutatmine for HEK293; RPMI, 10% FBS, 100 units/ml Penicillin, 100 ug/ml streptomycin, 53 ug/ml glutatmine, 10 ug/ml insulin, 10 mM HEPEs, 200 nM Sodium Pyruvate for T47D cells) and grown overnight at 37° C. in 5% CO2. For cell viability curves, 1:3 serially diluted payloads were added to the cells at final concentrations ranging from 100 nM to […], including a no treatment control group, and were then incubated for 5 days. After the 5-day incubation, cells were incubated at room temperature with 100 μL of CellTiter-Glo reagents for 10 minutes. Relative luminescence units (RLU) were determined on a Victor plate reader (PerkinElmer). The IC50 values were determined from a four-parameter logistic equation over a 10-point response curve (GraphPad Prism). All IC50 values are expressed in molar (M) concentration. The percent cell killing (% kill) at the maximum concentration tested was estimated from the following formula (100−% viable cells). Averages±standard deviation (SD) are included where replicate experiments were performed.
Bioassays were developed to assess the efficacy of an anti-PRLR antibody conjugated with the disclosed tubulysin payloads and reference payloads. It was developed to assess the activity of tubulysin payloads after internalization of an anti-PRLR-tubulysin ADC into cells, release of the payload, and subsequent cytotoxicity. For this assay, a HCT15 line was engineered to express human full length PRLR (accession #NP_000940.1). The resulting stable cell line is referred to herein as HCT15/PRLR. In vitro cytotoxicity of the disclosed payloads, reference compounds, and tested ADCs were evaluated similarly as described in this example using HCT15/PRLR cells with or without […] of Verapamil diluted in normal culture medium. The compounds were tested at concentrations starting at 100 nM with 3-fold serial dilution. All IC50 values are expressed in nM concentration and the percent cell killing (% kill) at the maximum concentration tested was estimated from the following formula (100−% viable cells).

[4] = tested on: T47D cells; assay: Cell-based killing assay of payloads (CellTiter-Glo), T47D cells; set-up: species or system human; conditions: 5-day incubation; for IC50: Homo sapiens, T47D, 120 h; for T47D % Kill: at maximum concentration tested
Summary of the method: as §1

[5] = tested on: C4-2 cells; assay: Cytotoxicity of anti-STEAP2 ADCs, payloads and reference compounds in C4-2 cells; type: cell-based, human; conditions: for IC50: Homo sapiens, top concentration 100 nM, 3-fold serial dilution; for % kill: at maximum concentration tested
Procedure: as §2
To further test the ability of the disclosed tubulysin payloads, reference compounds, and antibody drug conjugates using these payloads, a cytotoxicity assay was performed using C4-2 cells as described in this example (see above). For these studies, anti-STEAP2 antibodies were conjugated to select tubulysins payloads, and the compounds were tested at concentrations starting at 100 nM with 3-fold serial dilution. All IC50 values are expressed in nM concentration and the percent cell killing at the maximum concentration tested was estimated from the following formula (100−% viable cells).

[6] = tested on: HL60/MX2 cells; assay: Cytotoxicity in panel of MDR cell lines, HL60/MX2 (72 h and 144 h); type: cell-based, human; conditions: for IC50: Homo sapiens
Summary of the method: (§3)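 Viability was measured as ATP luminescence (CellTiter-Glo) after 72 h and 144 h payload exposure, using 1:3 dilution series. Each line had 1000 cells/well: H69AR in RPMI with 20% FBS, HCT-15 and HL60/MX2 in RPMI with 10% FBS, and MES-SA/MX2 in 1:1 Waymouth's:McCoy's with 10% FBS. Values are four-parameter logistic IC50 and % kill (100 − % viable) at the highest dose.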

[7] = tested on: MES-SA/MX2 cells; assay: Cytotoxicity in panel of MDR cell lines, MES-SA/MX2 (72 h and 144 h); type: cell-based, human; conditions: for IC50: Homo sapiens
Summary of the method: as §3

[8] = tested on: C4-2 cells; assay: Cell-based killing assay of payloads (CellTiter-Glo), C4-2 cells; set-up: species or system human; conditions: 5-day incubation; for IC50: Homo sapiens, C4-2, 120 h, average ± SD where replicates; for C4-2 % Kill: at maximum concentration tested (100 − % viable cells)
Summary of the method: as §1

[9] = tested on: HCT-15 cells; assay: Cytotoxicity in panel of MDR cell lines, HCT-15 (72 h and 144 h); type: cell-based, human; conditions: for IC50: Homo sapiens
Summary of the method: as §3

[10] = tested on: H69AR cells; assay: Cytotoxicity in panel of MDR cell lines, H69AR (72 h and 144 h); type: cell-based, human; conditions: for IC50: Homo sapiens
Summary of the method: as §3

[11] = molecular target: T1, STEAP2 endogenously expressed on C4-2 cells (human, UniProt Q8NFT2 1-490); assay: cell-based or functional assay
T1 sequence (looked up): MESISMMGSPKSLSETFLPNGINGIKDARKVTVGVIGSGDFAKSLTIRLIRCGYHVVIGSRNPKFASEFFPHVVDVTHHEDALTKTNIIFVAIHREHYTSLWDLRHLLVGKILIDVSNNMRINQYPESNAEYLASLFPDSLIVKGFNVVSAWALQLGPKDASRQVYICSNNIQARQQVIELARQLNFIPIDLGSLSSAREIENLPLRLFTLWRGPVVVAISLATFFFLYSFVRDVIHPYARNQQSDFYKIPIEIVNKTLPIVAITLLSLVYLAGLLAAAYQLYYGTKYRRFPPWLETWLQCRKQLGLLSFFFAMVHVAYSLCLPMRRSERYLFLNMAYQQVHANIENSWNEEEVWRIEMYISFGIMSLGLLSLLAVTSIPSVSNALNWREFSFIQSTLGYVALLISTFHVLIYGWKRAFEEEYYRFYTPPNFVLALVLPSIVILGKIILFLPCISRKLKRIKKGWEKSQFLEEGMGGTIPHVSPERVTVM

[12] = with 5 ug/mL Verapamil, read-out: HCT-15 + verapamil IC50
[13] = Homo sapiens, HCT-15, without Verapamil, read-out: HCT-15 IC50
[14] = with Verapamil, read-out: IC50 (nM) on HCT15/PRLR w/ Verapamil
[15] = without Verapamil, read-out: IC50 (nM) on HCT15/PRLR w/o Verapamil
[16] = 72 h incubation, read-out: HL60/MX2 IC50 72 h
[17] = 144 h incubation, read-out: HL60/MX2 IC50 144 h
[18] = 72 h incubation, read-out: MES-SA/MX2 IC50 72 h
[19] = 144 h incubation, read-out: MES-SA/MX2 IC50 144 h
[20] = 72 h incubation, read-out: HCT-15 IC50 72 h
[21] = 144 h incubation, read-out: HCT-15 IC50 144 h
[22] = 72 h incubation, read-out: H69AR IC50 72 h
[23] = 144 h incubation, read-out: H69AR IC50 144 h

Molecule | HCT-15 + verapamil % Kill ([1]; with 5 ug/mL Verapamil) [%] | IC50 [1, 12] [pM] | HCT-15 % Kill ([1]; without Verapamil) [%] | IC50 [1, 13] [pM] | IC50 [2] [pM] | HEK293 % Kill [2] [%] | IC50 [3, 14] [nM] | IC50 [3, 15] [nM] | % kill on HCT15/PRLR w/ Verapamil ([3]; with Verapamil) [%] | % kill on HCT15/PRLR w/o Verapamil ([3]; without Verapamil) [%] | IC50 [4] [pM] | T47D % Kill [4] [%] | IC50 [5] [pM] | % kill [5] [%] | HL60/MX2 % Kill 72 h ([6]; 72 h incubation) [%] | HL60/MX2 % Kill 144 h ([6]; 144 h incubation) [%] | IC50 [6, 16] [pM] | IC50 [6, 17] [pM] | MES-SA/MX2 % Kill 72 h ([7]; 72 h incubation) [%] | MES-SA/MX2 % Kill 144 h ([7]; 144 h incubation) [%] | further results
C#CCCCCN(C(=O)[C@@H](NC(=O)[C@H]1CCCCN1C)[C@@H](C)CC)[C@H](C[C@@H](OC(C)=O)c1nc(C(=O)N[C@@H](Cc2ccc(N)cc2)CC(C)(C)C(=O)O)cs1)C(C)C [IVd, (4S)-4-({2-[(1R,3R)-1-(Acetyloxy)-3-[(2S,3S)—N-(hex-5-yn-1-yl)-3-methyl-2-{[(2R)-1-methylpiperidin-2-yl]formamido}pentanamido]-4-methylpentyl]-1,3-thiazol-4-yl}formamido)-5-(4-aminophenyl)-2,2-dimethylpentanoic acid] | 97.7 ± 1.8 | 40.7 | 98.2 ± 0.5 | 57 | 57.2 | 85.4 | 0.015 | 0.037 | 99 | 99 | 35 | 84.5 | 22 | 99 | 98.6 | 99.9 | < 15 | < 15 | 99.5 | 100 | IC50 [7, 18]: 54.1 pM; IC50 [7, 19]: 130 pM; IC50 [8]: 16.4 pM; C4-2 % Kill [8]: 93.7 ± 1.8%; HCT-15 % Kill 72 h ([9]; 72 h incubation): 97.6%; HCT-15 % Kill 144 h ([9]; 144 h incubation): 99.7%; IC50 [9, 20]: 8.88 pM; IC50 [9, 21]: 29.5 pM; H69AR % Kill 72 h ([10]; 72 h incubation): 96.9%; H69AR % Kill 144 h ([10]; 144 h incubation): 99.5%; IC50 [10, 22]: 56.4 pM; IC50 [10, 23]: 133 pM
C#CCCCON(C(=O)[C@@H](NC(=O)[C@H]1CCCCN1C)[C@@H](C)CC)[C@H](C[C@@H](OC(C)=O)c1nc(C(=O)N[C@@H](Cc2ccc(N)cc2)CC(C)(C)C(=O)O)cs1)C(C)C [Ve, (4S)-4-({2-[(1R,3R)-1-(Acetyloxy)-4-methyl-3-[(2S,3S)-3-methyl-2-{[(2R)-1-methylpiperidin-2-yl]formamido}-N-(pent-4-yn-1-yloxy)pentanamido]pentyl]-1,3-thiazol-4-yl}formamido)-5-(4-aminophenyl)-2,2-dimethylpentanoic acid] | 98.2 ± 1.2 | 65.4 | 98.6 ± 0.7 | 273 | 103 | 88.5 | 0.033 | 0.203 | 99 | 99 | 73.1 | 69.8 | 63 | 99 | 98.3 | 100 | < 15 | < 15 | 98.9 | 100 | IC50 [7, 18]: 520 pM; IC50 [7, 19]: 734 pM; IC50 [8]: < 47 pM; C4-2 % Kill [8]: 92.6%; HCT-15 % Kill 72 h ([9]; 72 h incubation): 97.5%; HCT-15 % Kill 144 h ([9]; 144 h incubation): 99.7%; IC50 [9, 20]: 92.2 pM; IC50 [9, 21]: 158 pM; H69AR % Kill 72 h ([10]; 72 h incubation): 96.6%; H69AR % Kill 144 h ([10]; 144 h incubation): 99.5%; IC50 [10, 22]: 331 pM; IC50 [10, 23]: 559 pM
B1 |  |  |  |  |  |  |  |  |  |  |  |  |  |  |  |  |  |  |  |  | % kill, C4-2 cells [11]: 99%; IC50 (nM), cytotoxicity in C4-2 cells (CellTiter-Glo) [11]: 0.097 nM
B2 |  |  |  |  |  |  |  |  |  |  |  |  |  |  |  |  |  |  |  |  | % kill, C4-2 cells [11]: 99%; IC50 (nM), cytotoxicity in C4-2 cells (CellTiter-Glo) [11]: 0.15 nM
